The test system of the experiment is rat models with glaucoma induced by NMDA. In words: Protective effect for retinal ganglion cells against nerve damage by NMDA (thickness of inner plexiform layer). The format is in vivo, Sprague-Dawley (SD) rats. The text has this:
In recent years the glutamate analogue NMDA (N-methyl-D-aspartate) has been widely reported to be one of causative agents of neurodegenerative diseases including Alzheimer's disease. In the ophthalmic field, NMDA is considered to be involved in optic nerve damage in glaucoma (Brain Research Bulletin, 81 (2010) 349-358). Accordingly, in this experiment rat models with glaucoma induced by NMDA were used to evaluate the neuroprotective effect of GGA.
To Sprague-Dawley (SD) rats, the all-trans form, the 5Z-mono-cis form and teprenone were separately pre-administered by oral administration (Test Example 1), intravitreal administration (Test Example 2) or ocular instillation administration (Test Example 3) and 5 μL of NMDA was administered into the vitreous body to induce nerve damage. For Test Example 2, a marketed therapeutic eye drop for glaucoma, AIPHAGAN (trade name), was intravitreally administered as a positive control once a day for five days. For each of Test Examples, a base not containing GGA or AIPHAGAN was administered as a control in the same manner as described above.
The dosage and regimen of Test Examples 1 to 3 are shown in Table 1 and the constitution of the base used in each tests are shown in Table 2.
Three days after administration of NMDA, the eyeballs were harvested, fixed with half Karnovsky's fixative for 24 hours, embedded in paraffin, thin sectioned and stained with hematoxylin-eosin (HE) to prepare histopathological sections. The histological sections were observed under an optical microscope and the thickness (μm) of the inner plexiform layer (IPL) of the retina was measured. From the thickness of the inner plexiform layer (IPL) of the retina, the neuroprotective effects of the test preparations were evaluated.

Molecules are shown by their SMILES.

Take `CC(=O)CC/C=C(\C)CC/C=C(\C)CC/C=C(\C)CCC=C(C)C` [all-trans form, (5E,9E,13E)-6,10,14,18-tetramethyl-5,9,13,17-nonadecatetrae n-2-one]: the “Neuroprotective effect against nerve damage by NMDA compared with the base (IPL thickness)” value (Test Example 1: oral, 800 mg/kg, 2 days, once per day, NMDA 4 mM, FIG. 6) is given as “significant neuroprotective effects”; the “Neuroprotective effect against nerve damage by NMDA compared with the base (IPL thickness)” value (Test Example 2: intravitreal, 0.05% w/v, 5 days, once per day, NMDA 40 mM, FIG. 7) is “significant neuroprotective effects”; the “Neuroprotective effect against nerve damage by NMDA compared with the base (IPL thickness)” value (Test Example 3: ocular instillation, 1% w/v, 5 days, 5 times per day, NMDA 4 mM, FIG. 9) is reported as “significant neuroprotective effect”. Under “Test Example 2: intravitreal, 0.05% w/v, 5 days, NMDA 40 mM, FIG. 7”, the “Neuroprotective effect compared with AIPHAGAN Ophthalmic Solution 0.1%” value is “significantly superior neuroprotective effect”.

For the origin of these results see patent US20140350119A1, “OPHTHALMIC COMPOSITION COMPRISING GERANYLGERANYLACETONE” (ROHTO PHARMACEUTICAL CO., LTD., priority 2012, published 2014).
